{"source": "ChEMBL document CHEMBL4818999", "about": "“Pyrido[2, 3-d]pyrimidin-7(8H)-ones as new selective orally bioavailable Threonine Tyrosine Kinase (TTK) inhibitors” (Eur J Med Chem, 2021)", "key": {"[1]": {"assay": "Toxicity in CB17-SCID mouse xenografted with human HCT-116 cells xenografted assessed as body weight loss at 50 mg/kg, po administered once daily relative to control", "type": "organism-based", "conditions": "in vivo"}, "[2]": {"biological_target": "Mitogen-activated protein kinase 9 (Homo sapiens) (UniProt P45984)", "sequence (P45984 whole entry, looked up)": "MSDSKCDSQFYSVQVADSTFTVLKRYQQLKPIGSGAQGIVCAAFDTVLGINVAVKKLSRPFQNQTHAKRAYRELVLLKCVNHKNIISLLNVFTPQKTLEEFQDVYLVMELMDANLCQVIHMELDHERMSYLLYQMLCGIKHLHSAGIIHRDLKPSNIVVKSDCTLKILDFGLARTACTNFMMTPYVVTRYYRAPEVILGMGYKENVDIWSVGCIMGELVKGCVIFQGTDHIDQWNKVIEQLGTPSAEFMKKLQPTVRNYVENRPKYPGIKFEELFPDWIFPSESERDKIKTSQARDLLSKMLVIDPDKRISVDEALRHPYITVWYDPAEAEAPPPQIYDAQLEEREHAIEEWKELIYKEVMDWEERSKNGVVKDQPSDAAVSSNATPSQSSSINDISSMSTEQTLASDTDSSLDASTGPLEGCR", "conditions": "dose 100.0 nM", "description": "Inhibition of human recombinant JNK2 using ATF2 at 100 nM direct filter-binding radiometric kinase activity assay relative to control"}, "[3]": {"organism": "Homo sapiens", "conditions": "dose 100.0 nM", "description": "Inhibition of PIPK5 (unknown origin) at 100 nM direct filter-binding radiometric kinase activity assay relative to control"}, "[4]": {"biological_target": "Mitogen-activated protein kinase 10 (Homo sapiens) (UniProt P53779)", "sequence (P53779 whole entry)": "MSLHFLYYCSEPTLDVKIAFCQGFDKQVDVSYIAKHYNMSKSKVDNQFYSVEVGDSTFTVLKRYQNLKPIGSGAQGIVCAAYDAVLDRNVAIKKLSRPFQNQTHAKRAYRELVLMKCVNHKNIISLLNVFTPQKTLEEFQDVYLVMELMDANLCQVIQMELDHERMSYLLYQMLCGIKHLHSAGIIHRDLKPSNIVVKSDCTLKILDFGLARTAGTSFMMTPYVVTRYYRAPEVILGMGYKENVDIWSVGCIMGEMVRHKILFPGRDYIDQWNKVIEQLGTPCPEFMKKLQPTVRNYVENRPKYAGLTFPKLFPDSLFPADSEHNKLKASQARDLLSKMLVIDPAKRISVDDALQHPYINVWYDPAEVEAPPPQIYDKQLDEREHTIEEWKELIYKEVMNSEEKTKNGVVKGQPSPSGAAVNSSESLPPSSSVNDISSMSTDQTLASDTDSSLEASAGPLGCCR", "conditions": "dose 100.0 nM", "description": "Inhibition of human full length JNK3 at 100 nM by direct-filter Binding radiometric assay relative to control"}, "[5]": {"biological_target": "Phosphatidylinositol 4,5-bisphosphate 3-kinase catalytic subunit delta isoform (Homo sapiens, UniProt O00329)", "sequence (O00329 whole entry, the tested form may be a part, canonical isoform)": "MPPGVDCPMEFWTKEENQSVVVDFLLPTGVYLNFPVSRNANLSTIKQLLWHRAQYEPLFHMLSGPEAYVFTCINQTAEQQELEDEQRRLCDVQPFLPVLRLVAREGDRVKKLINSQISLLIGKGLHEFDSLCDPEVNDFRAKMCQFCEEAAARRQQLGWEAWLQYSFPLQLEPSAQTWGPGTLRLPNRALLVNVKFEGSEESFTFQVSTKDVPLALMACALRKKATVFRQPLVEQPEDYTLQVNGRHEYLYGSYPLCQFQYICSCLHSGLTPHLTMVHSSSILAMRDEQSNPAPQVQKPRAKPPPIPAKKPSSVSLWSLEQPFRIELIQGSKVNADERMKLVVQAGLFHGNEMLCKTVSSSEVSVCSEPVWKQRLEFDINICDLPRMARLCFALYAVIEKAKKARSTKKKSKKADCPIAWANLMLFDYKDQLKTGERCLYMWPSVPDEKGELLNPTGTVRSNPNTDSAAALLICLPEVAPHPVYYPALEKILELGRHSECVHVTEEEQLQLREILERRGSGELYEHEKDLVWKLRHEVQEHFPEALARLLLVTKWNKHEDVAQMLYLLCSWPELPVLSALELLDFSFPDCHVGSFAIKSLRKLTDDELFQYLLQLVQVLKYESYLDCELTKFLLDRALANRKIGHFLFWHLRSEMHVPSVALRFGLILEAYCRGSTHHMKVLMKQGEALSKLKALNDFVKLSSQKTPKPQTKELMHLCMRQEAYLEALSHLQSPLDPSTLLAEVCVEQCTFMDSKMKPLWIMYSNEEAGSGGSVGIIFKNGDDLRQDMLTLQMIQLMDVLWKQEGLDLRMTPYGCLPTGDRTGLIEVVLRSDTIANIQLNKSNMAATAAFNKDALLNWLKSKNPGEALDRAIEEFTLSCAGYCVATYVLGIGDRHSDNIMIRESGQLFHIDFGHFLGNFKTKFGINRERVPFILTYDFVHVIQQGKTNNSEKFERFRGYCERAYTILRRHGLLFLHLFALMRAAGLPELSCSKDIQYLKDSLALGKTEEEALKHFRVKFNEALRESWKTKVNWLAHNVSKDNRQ", "assay": "Binding affinity to wild-type human partial length PIK3CD (R108 to Q1044 residues) expressed in HEK293 cells by active site-directed competition binding based Kinomescan method", "type": "cell-based"}, "[6]": {"biological_target": "Serine/threonine-protein kinase DCLK1 (Homo sapiens) (UniProt O15075)", "sequence (O15075 whole entry)": "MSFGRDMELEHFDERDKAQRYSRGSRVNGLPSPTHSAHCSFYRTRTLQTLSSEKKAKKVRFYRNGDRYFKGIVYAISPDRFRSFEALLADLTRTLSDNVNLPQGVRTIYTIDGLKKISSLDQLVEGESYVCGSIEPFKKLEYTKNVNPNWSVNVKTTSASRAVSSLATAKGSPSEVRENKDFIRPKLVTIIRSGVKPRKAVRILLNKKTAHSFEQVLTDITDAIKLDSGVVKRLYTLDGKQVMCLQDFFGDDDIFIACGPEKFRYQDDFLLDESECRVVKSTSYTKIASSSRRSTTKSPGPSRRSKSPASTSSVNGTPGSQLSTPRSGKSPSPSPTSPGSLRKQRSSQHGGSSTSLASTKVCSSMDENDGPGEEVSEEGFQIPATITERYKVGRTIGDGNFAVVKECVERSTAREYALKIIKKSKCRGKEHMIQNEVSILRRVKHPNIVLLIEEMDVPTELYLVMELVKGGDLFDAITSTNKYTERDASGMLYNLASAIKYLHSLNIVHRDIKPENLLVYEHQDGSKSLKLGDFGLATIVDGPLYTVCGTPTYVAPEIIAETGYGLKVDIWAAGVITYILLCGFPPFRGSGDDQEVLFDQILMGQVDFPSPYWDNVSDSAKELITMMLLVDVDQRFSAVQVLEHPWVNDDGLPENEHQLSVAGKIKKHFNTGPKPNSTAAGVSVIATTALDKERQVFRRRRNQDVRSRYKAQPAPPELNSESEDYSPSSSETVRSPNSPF", "conditions": "dose 100.0 nM", "description": "Inhibition of human DCAMKL1 at 100 nM by direct-filter Binding radiometric assay relative to control"}, "[7]": {"assay": "AUC (0 to infinity) in Sprague-Dawley rat at 5 mg/kg, iv", "type": "ADME, organism-based", "parameters": "route intravenous, time infinity, dose 5 mg/kg", "conditions": "in vivo"}, "[8]": {"assay": "Half life in Sprague-Dawley rat at 5 mg/kg, iv", "type": "ADME, organism-based", "conditions": "in vivo"}, "[9]": {"biological_target": "Myotonin-protein kinase (Homo sapiens) (UniProt Q09013)", "sequence (Q09013 whole entry)": "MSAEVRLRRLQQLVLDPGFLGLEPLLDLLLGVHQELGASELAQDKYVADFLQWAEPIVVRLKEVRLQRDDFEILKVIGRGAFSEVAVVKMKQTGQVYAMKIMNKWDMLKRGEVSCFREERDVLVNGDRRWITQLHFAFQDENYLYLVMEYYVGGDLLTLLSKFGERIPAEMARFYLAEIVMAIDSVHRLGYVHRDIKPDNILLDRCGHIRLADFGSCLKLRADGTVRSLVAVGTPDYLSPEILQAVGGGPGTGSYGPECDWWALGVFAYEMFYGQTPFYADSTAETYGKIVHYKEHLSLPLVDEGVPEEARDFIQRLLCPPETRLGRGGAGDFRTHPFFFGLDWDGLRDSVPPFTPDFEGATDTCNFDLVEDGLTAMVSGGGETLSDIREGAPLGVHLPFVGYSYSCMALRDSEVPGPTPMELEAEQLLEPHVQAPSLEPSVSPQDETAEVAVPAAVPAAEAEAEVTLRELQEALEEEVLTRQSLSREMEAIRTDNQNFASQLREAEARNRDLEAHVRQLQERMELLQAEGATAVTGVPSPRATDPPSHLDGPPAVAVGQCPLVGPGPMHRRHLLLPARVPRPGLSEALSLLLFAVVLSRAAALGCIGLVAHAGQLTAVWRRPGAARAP", "conditions": "dose 100.0 nM", "description": "Inhibition of human recombinant DMPK (1 to 549) using Axltide at 100 nM direct filter-binding radiometric kinase activity assay relative to control"}, "[10]": {"biological_target": "Death-associated protein kinase 3 (Homo sapiens, UniProt O43293)", "sequence (O43293 whole entry, the tested form may be a part)": "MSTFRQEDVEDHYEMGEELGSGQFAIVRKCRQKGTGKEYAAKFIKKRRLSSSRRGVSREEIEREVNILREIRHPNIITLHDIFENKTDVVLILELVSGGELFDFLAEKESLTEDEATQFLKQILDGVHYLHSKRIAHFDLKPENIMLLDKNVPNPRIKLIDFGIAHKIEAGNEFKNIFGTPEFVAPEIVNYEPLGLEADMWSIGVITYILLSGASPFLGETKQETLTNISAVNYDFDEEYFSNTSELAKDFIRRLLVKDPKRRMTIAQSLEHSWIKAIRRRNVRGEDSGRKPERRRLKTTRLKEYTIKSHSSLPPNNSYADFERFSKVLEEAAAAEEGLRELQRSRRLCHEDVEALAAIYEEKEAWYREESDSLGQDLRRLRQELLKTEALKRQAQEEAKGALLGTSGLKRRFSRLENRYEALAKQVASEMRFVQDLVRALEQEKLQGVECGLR", "assay": "Binding affinity to wild-type human partial length DAPK3 (M1 to A277 residues) expressed in bacterial expression system by measuring active site-directed competition binding based Kinomescan method"}, "[11]": {"assay": "Half life in Sprague-Dawley rat at 25 mg/kg, po", "type": "ADME, organism-based", "conditions": "in vivo"}, "[12]": {"biological_target": "NUAK family SNF1-like kinase 2 (Homo sapiens) (UniProt Q9H093)", "sequence (Q9H093 whole entry)": "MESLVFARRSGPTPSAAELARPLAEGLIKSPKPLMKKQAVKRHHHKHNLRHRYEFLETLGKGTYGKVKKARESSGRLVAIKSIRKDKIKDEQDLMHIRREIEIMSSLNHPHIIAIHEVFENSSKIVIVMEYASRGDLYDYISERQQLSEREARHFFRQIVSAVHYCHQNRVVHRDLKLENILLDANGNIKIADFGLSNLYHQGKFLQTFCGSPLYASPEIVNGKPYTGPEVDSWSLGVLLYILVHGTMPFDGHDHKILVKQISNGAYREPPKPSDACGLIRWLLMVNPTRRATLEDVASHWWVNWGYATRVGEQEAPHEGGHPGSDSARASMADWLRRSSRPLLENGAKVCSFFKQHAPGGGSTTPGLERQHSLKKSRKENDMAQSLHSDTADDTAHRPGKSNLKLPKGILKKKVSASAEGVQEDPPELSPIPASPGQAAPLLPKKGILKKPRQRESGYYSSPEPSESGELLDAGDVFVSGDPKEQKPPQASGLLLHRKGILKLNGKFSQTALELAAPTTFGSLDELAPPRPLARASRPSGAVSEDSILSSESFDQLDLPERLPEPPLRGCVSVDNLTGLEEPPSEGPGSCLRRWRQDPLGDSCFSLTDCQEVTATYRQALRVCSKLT", "conditions": "dose 100.0 nM"}, "[13]": {"system": "NCI-H460", "assay": "Antiproliferative activity against human NCI-H460 cells assessed as growth inhibition after 96 hrs by CCK8 assay", "type": "functional, cell-based", "conditions": "NCI-H460, 96 h"}, "[14]": {"system": "HCT-116", "assay": "Induction of apoptosis in human HCT-116 cells assessed as necrotic cells at 111.1 nM incubated for 48 hrs by annexin V and 7-AAD staining based flow cytometry analysis (reference value: 1.20 %)", "type": "functional"}, "[15]": {"biological_target": "Death-associated protein kinase 1 (Homo sapiens) (UniProt P53355)", "conditions": "dose 100.0 nM"}, "[16]": {"biological_target": "Phosphatidylinositol 3-kinase C2 domain-containing subunit gamma (Homo sapiens, UniProt O75747)", "assay": "Binding affinity to human partial length PIK3C2G (M1 to I1446 residues) expressed in mammalian expression system by active site-directed competition binding based Kinomescan method"}, "[17]": {"system": "HCT-116", "assay": "Induction of apoptosis in human HCT-116 cells assessed as viable cells at 333.3 nM incubated for 48 hrs by annexin V and 7-AAD staining based flow cytometry analysis (reference value: 82.09 %)", "type": "functional", "conditions": "read-out: Activity"}, "[18]": {"assay": "Cmax in Sprague-Dawley rat at 25 mg/kg, po", "type": "ADME, organism-based", "parameters": "route oral, dose 25 mg/kg", "conditions": "in vivo"}, "[19]": {"biological_target": "T1, Interleukin-1 receptor-associated kinase 1 (Homo sapiens, UniProt P51617)", "assay": "Binding affinity to wild-type human partial length IRAK1 (R194 to S712 residues) expressed in mammalian expression system by active site-directed competition binding based Kinomescan method"}, "[20]": {"system": "HCT-116", "assay": "Antitumor activity at human HCT-116 cells xenografted in CB17-SCID mouse assessed as tumor growth inhibition at 50 mg/kg, po administered once daily for 16 days in combination with paclitaxel at 20 mg/kg, ip once weekly relative to control", "type": "functional", "conditions": "HCT-116, 384 h, time 16 day, read-out: TGI"}, "[21]": {"assay": "Toxicity in CB17-SCID mouse xenografted with human HCT-116 cells xenografted assessed as liver damage at 50 mg/kg, po administered once daily relative to control", "type": "organism-based", "conditions": "in vivo"}, "[22]": {"biological_target": "Serine/threonine-protein kinase ULK1 (Homo sapiens) (UniProt O75385)", "conditions": "dose 100.0 nM", "description": "Inhibition of human recombinat ULK1 (1 to 314) using casein as substrate at 100 nM direct filter-binding radiometric kinase activity assay relative to control"}, "[23]": {"biological_target": "Phosphatidylinositol 3-kinase C2 domain-containing subunit gamma (Homo sapiens) (UniProt O75747)", "conditions": "dose 100.0 nM", "description": "Inhibition of PIK3C2G (unknown origin) at 100 nM direct filter-binding radiometric kinase activity assay relative to control"}, "[24]": {"system": "HCT-116", "assay": "Antitumor activity at human HCT-116 cells xenografted in CB17-SCID mouse assessed as tumor growth inhibition at 50 mg/kg, po administered daily, 2days on/ 4 days off and measured every 2 days for 16 days relative to control", "type": "functional", "conditions": "HCT-116, po, 384 h, time 16 day, read-out: TGI"}, "[25]": {"biological_target": "Phosphorylase b kinase gamma catalytic chain, liver/testis isoform (Homo sapiens) (UniProt P15735)", "sequence (P15735 whole entry, canonical isoform)": "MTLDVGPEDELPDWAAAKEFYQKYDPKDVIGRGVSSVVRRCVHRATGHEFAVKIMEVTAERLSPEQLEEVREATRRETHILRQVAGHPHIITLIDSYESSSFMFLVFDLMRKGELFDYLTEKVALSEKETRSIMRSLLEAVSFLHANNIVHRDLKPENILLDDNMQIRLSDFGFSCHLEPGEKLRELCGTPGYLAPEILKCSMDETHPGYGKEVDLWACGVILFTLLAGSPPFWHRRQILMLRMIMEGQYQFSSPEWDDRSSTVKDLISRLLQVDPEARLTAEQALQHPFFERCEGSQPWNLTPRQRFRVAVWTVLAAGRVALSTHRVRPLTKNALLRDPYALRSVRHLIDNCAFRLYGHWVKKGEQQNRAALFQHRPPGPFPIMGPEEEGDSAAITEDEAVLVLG", "conditions": "dose 100.0 nM", "description": "Inhibition of human recombinant PHKG2 using ZIPtide at 100 nM direct filter-binding radiometric kinase activity assay relative to control"}, "[26]": {"biological_target": "T2, Dual specificity protein kinase TTK (Homo sapiens, UniProt P33981)", "T2 sequence (P33981 whole entry)": "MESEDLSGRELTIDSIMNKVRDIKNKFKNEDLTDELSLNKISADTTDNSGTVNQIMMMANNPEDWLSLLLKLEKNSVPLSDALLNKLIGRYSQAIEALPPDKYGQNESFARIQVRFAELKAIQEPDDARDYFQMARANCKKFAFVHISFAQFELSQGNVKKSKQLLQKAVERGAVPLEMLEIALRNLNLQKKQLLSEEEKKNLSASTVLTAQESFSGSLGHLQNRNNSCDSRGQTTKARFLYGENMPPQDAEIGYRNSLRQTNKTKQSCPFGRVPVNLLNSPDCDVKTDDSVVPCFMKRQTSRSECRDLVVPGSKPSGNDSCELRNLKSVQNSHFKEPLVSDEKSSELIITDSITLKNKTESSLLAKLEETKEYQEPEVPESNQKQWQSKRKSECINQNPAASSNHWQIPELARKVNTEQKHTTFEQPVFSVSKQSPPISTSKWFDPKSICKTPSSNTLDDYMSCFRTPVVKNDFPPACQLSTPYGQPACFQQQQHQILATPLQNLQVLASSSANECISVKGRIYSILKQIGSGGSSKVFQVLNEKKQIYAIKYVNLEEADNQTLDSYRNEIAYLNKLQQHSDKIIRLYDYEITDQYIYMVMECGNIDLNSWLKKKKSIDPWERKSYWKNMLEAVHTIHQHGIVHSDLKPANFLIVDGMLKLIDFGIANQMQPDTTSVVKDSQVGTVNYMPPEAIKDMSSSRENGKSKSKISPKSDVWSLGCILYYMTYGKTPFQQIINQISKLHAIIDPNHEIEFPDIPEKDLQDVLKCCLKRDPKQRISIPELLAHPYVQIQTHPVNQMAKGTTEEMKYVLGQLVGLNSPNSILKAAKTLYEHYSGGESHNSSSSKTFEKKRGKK", "assay": "Binding affinity to wild-type human partial length TTK (N505 to V798 residues) expressed in bacterial expression system by active site-directed competition binding based Kinomescan method"}, "[27]": {"biological_target": "T1, Interleukin-1 receptor-associated kinase 1", "conditions": "dose 100.0 nM", "description": "Inhibition of human recombinant IRAK1 (198 to end) using myelin ba as substrate at 100 nM direct filter-binding radiometric kinase activity assay relative to control"}, "[28]": {"system": "HCT-116", "assay": "Induction of apoptosis in human HCT-116 cells assessed as viable cells at 111.1 nM incubated for 48 hrs by annexin V and 7-AAD staining based flow cytometry analysis (reference value: 82.09 %)", "type": "functional", "conditions": "read-out: Activity"}}, "data": [{"smiles": "COc1cc(N2CCN(C)CC2)ccc1Nc1ncc2c(C)cc(=O)n([C@H]3CC[C@@H](NC(=O)C4CCCCC4)CC3)c2n1", "values": [{"measurement": "Activity", "setting": "[1]", "value": "< 15", "unit": "%"}, {"measurement": "inhibition", "setting": "[2]", "value": 86, "unit": "%"}, {"measurement": "inhibition", "setting": "[3]", "value": 77, "unit": "%"}, {"measurement": "inhibition", "setting": "[4]", "value": 87, "unit": "%"}, {"measurement": "Kd", "setting": "[5]", "value": "> 1000", "unit": "nM"}, {"measurement": "inhibition", "setting": "[6]", "value": 80, "unit": "%"}, {"measurement": "AUC(0-inf)", "setting": "[7]", "value": 5310, "unit": "ng·h/mL"}, {"measurement": "half-life", "setting": "[8]", "value": 3.58, "unit": "h"}, {"measurement": "inhibition", "setting": "[9]", "value": 81, "unit": "%"}, {"measurement": "Kd", "setting": "[10]", "value": 13, "unit": "nM"}, {"measurement": "half-life", "setting": "[11]", "value": 6.01, "unit": "h"}, {"measurement": "inhibition", "setting": "[12]", "value": 84, "unit": "%"}, {"measurement": "IC50", "setting": "[13]", "value": 1090, "unit": "nM"}, {"measurement": "Activity", "setting": "[14]", "value": 0.75, "unit": "%"}, {"measurement": "inhibition", "setting": "[15]", "value": 85, "unit": "%"}, {"measurement": "Kd", "setting": "[16]", "value": "> 1000", "unit": "nM"}, {"measurement": "viability at 0.3333 µM", "setting": "[17]", "value": 70.7, "unit": "%"}, {"measurement": "Cmax", "setting": "[18]", "value": 1230, "unit": "ng/mL"}, {"measurement": "Kd", "setting": "[19]", "value": "> 1000", "unit": "nM"}, {"measurement": "inhibition in vivo at 50 mg/kg", "setting": "[20]", "value": 78, "unit": "%"}, {"measurement": "Activity", "setting": "[21]", "value": "Non-Toxic"}, {"measurement": "inhibition", "setting": "[22]", "value": 68, "unit": "%"}, {"measurement": "inhibition", "setting": "[23]", "value": 94.4, "unit": "%"}, {"measurement": "inhibition in vivo at 50 mg/kg", "setting": "[24]", "value": 29, "unit": "%"}, {"measurement": "inhibition", "setting": "[25]", "value": 87, "unit": "%"}, {"measurement": "Kd", "setting": "[26]", "value": 0.15, "unit": "nM"}, {"measurement": "inhibition", "setting": "[27]", "value": 91.8, "unit": "%"}, {"measurement": "viability at 0.1111 µM", "setting": "[28]", "value": 89.5, "unit": "%"}]}]}
